The results in this text go back to PubChem BioAssay (NCI).

Molecules are shown by their SMILES.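 GI50 = concentration required for 50% inhibition of growth. Definition used: TGI = concentration required for complete inhibition of growth.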 Numbered stars: 1 amine (or outer) side, 2 acyl side, 3 side chain; on linkers, the order of the positions; unused ones are H or OH. Bridge positions count the residues as written; N and C are the ends. Square brackets hold non-standard residues; d marks the D form. Peptide text beside a SMILES is read from it. I, II: the chains in the order shown. Actinocin(9to1) = Cc1c2oc3c(C)ccc(C(=O)[*:1])c3nc-2c(C(=O)[*:2])c(N)c1=O; aThr = C[C@H](O)[C@H](N)C(=O)O; NMeV = CN[C@H](C(=O)O)C(C)C; Sar = CNCC(=O)O Bounds are passed on as bounds.

Some test systems named below: OVCAR-4 ovarian; PC-3 prostate; EKVX NSCLC; HCT-15 colon; UO-31 renal; IGROV1 ovarian; A549 NSCLC; ACHN renal; M14 melanoma; SW-620 colon; 786-0 renal; A498 renal; NCI/ADR-RES ovarian.
What all share (assay): growth of human tumour cells (NCI), 384-well format

Take `Cc1c2oc3c(C)ccc(C(=O)N[C@@H]4C(=O)N[C@H](C(C)C)C(=O)N5CCC[C@H]5C(=O)N(C)CC(=O)N(C)[C@@H](C(C)C)C(=O)O[C@H]4C)c3nc-2c(C(=O)N[C@@H]2C(=O)N[C@H](C(C)C)C(=O)N3CCC[C@H]3C(=O)N(C)CC(=O)N(C)[C@@H](C(C)C)C(=O)O[C@H]2C)c(N)c1=O` (I: [aThr][dV]P[Sar][NMeV] / II: [aThr][dV]P[Sar][NMeV]; ester I:1-I:C, II:1-II:C; linker I:N-II:N via Actinocin(9to1)): the TGI in the test on OVCAR-4 ovarian is < 26.6 nM; in the test with PC-3 prostate, 57.1 nM; in the test on EKVX NSCLC it was 43.5 nM; in the test on HCT-15 colon it was 69 nM; in the test with UO-31 renal, 26.8 nM; in the test on IGROV1 ovarian it was 13.8 nM. For the same compound, the TGI was 1370 nM in the test with A549 NSCLC; 16.5 nM with ACHN renal; < 11.2 nM in the test with M14 melanoma; < 35.1 nM in the test with SW-620 colon; 18.8 nM with 786-0 renal; < 16.5 nM with A498 renal. The same compound came in with a TGI with NCI/ADR-RES ovarian of 2830 nM. Also, the results for the GI50 with UO-31 renal and in the test on NCI/ADR-RES ovarian were < 11.9 nM and 571 nM, respectively.
